Patent publication US20230293680A1, “A COMPOSITION OF ANTI-DR5 ANTIBODIES AND AN IMMUNOMODULATORY IMIDE DRUG FOR USE IN TREATING MULTIPLE MYELOMA” (Genmab B.V., priority 2020, published 2023)
Where two headings read alike, the source gives them in different places.

Legend:
NCI-H929 cells [1] = assay: viability of lenalidomide-preincubated NCI-H929 cells; type: cell-based, human; settings: NCI-H929 cells preincubated 5 days with 3 μM lenalidomide
Experimental: FIG. 11: Percentage inhibition of viability of lenalidomide-preincubated NCI-H929 cells by HexaBody-DR5/DR5, lenalidomide and the combination thereof. […] Graphs show the mean and SD of duplicate measurements from a representative experiment (n=3).

primary MM cells [2] = settings: 3 μM, 24 h viability assays on primary MM cells ex vivo
A375 = assay: three-day viability assay (CellTiter-Glo); type: cell-based, human; settings: A375 melanoma, 3 days
Experimental: (§1) COLO 205 cancer cells were harvested by pooling the culture supernatant containing non-adherent cells and trypsinized adherent cells. The other cell lines were harvested by trypsinization. For trypsinization, adherent cells were incubated with Trypsin-EDTA (Gibco, Cat no 15400-054) diluted in PBS (B.Braun; Cat no 3623140) to a final concentration of 0.05% Trypsin for 2 minutes at 37° C. and passed through a cell strainer. Cells were pelleted by centrifugation for 5 minutes at 1,200 rpm and resuspended at a concentration of 0.5x10^5 cells/mL in culture medium.
(§2) 100 μL of single cell suspensions (5,000 cells per well) were seeded in polystyrene 96-well flat-bottom plates (Greiner Bio-One, Cat no 655180) and allowed to adhere overnight at 37° C. The following day, 50 μL antibody samples (0.002-133 nM final concentrations in 4-fold dilutions) were added to the adherent cells and incubated for 3 days at 37° C. As a positive control in all viability assays, cells were incubated with 5 μM staurosporine (Sigma Aldrich, Cat no S6942), and untreated cells were included as the negative control. The viability of the cultured cells was determined in a CellTiter-Glo Luminescent Cell Viability Assay (Promega, Cat no G7571) that quantifies the presence of ATP, which is an indicator of metabolically active cells. From the kit, 15 μL Luciferin Solution Reagent was added to each well of the viability assay plate. Next, plates were incubated for 1.5 hours at 37° C. 100 μL supernatant was transferred to a white OptiPlate-96 (Perkin Elmer, Cat no 6005299) and luminescence was measured on an EnVision Multilabel Reader (PerkinElmer). Data were analyzed and plotted using non-linear regression (sigmoidal dose-response with variable slope) using GraphPad Prism software. The percentage viable cells was calculated using the following formula: % viable cells=[(luminescence antibody sample−luminescence staurosporine sample)/(luminescence no antibody sample−luminescence staurosporine sample)]×100.

BxPC-3 = assay: three-day viability assay (CellTiter-Glo); type: cell-based, human; settings: BxPC-3 pancreatic, 3 days
Experimental: as §1, §2

COLO 205 = assay: three-day viability assay (CellTiter-Glo); type: cell-based, human; settings: COLO 205 CRC, 3 days
Experimental: as §1, §2

HCT-15 = assay: three-day viability assay (CellTiter-Glo); type: cell-based, human; settings: HCT-15 CRC, 3 days
Experimental: as §1, §2

PANC-1 = assay: three-day viability assay (CellTiter-Glo); type: cell-based, human; settings: PANC-1 pancreatic, 3 days
Experimental: as §1, §2

SK-MES-1 = assay: three-day viability assay (CellTiter-Glo); type: cell-based, human; settings: SK-MES-1 NSCLC, 3 days
Experimental: as §1, §2

SNU-5 = assay: three-day viability assay (CellTiter-Glo); type: cell-based, human; settings: SNU-5 gastric, 3 days
Experimental: as §1, §2

human cancer cell lines = assay: viability assays in various human cancer cell lines (overall); type: cell-based
Experimental: as §1, §2

[3] = system: colorectal cancer PDX model CR0126; assay: in vivo anti-tumor activity, PDX model; parameters: species or system mice; settings: 2 mg/kg QWx2 IV; Mann-Whitney p<0.0379
Experimental: (§3) Immunodeficient 8-13 weeks old female BALB/c athymic nude mice (Beijing HFK Bio-Technology Co. Ltd.) or nu/nu mice (Vital River Laboratories Research Models and Services) were inoculated subcutaneously at the right flank with one tumor fragment (2-3 mm diameter) derived from colorectal cancer PDX model CR0126 or CR3056 at CrownBio, Beijing, China. Earmarks were placed for mouse identification. Tumor volumes were measured at least twice per week using a digital caliper (PLEXX). Tumor volumes (mm^3) were calculated as follows: tumor volume=0.5×(length)×(width)^2. When the mean tumor size reached ˜200 mm^3, mice were divided into groups of 8 mice each, with equal tumor size distribution (average and variance). Mice were treated QW×2 by IV injection of 10 μL IgG1-DR5-01-G56T-E430G+IgG1-DR5-05-E430G per gram body weight: 0.2 mg/mL (2 mg/kg) or 0.05 mg/mL (0.5 mg/kg). For each model, statistical analysis was performed on the last day that all groups were intact.

[4] = system: colorectal cancer PDX model CR3056; assay: in vivo anti-tumor activity, PDX model; parameters: species or system mice
Experimental: as §3

[5] = dose range finding study by intravenous infusion, plasma PK; type: in vivo, cynomolgus monkey; settings: 0.1, 0.5, 5 and 25 mg/kg IV
CDX and PDX mouse models = assay: in vivo anti-tumor response in CDX and PDX mouse models (overall)
Experimental: Therefore, the FIH starting dose of 0.3 mg/kg was considered to be in the lower end of a potential therapeutic dose-range in human patients.

[6] = nonclinical immune agonism / cytokine release assessment
primary MM cells [7] = assay: 24-hour ex vivo viability assay with BMNCs of MM patients, flow cytometry; type: cell-based, human; settings: 20 μg/mL
NCI-H929 cells [8] = assay: cytotoxicity in NCI-H929 cells with healthy donor PBMCs; type: cell-based, human; settings: 20 μg/mL, 24 h, absence and presence of healthy donor PBMCs
Experimental: FIG. 12: Inhibition of cell viability by HexaBody-DR5/DR5 in combination with lenalidomide on NCI-H929 cells in presence and absence of healthy donor peripheral blood mononuclear cells (PBMCs) in vitro. (A) Percentage kill of NCI-H929 cells by 20 μg/mL HexaBody-DR5/DR5 after a 24-hour incubation in the absence and presence of healthy donor PBMCs (n=6) in a 40:1 effector to target ratio. Mean and SD are shown. (ns) not significant (paired t-test). […] NCI-H929 cells were incubated with lenalidomide-exposed PBMCs and treated with lenalidomide and/or HexaBody-DR5/DR5 for an additional 24 h. Mean percentage kill and SD is shown. **p<0.005; ***p<0.0005 (paired t-test).
To test possible indirect immunomodulatory effects of lenalidomide on HexaBody-DR5/DR5-mediated killing, PBMCs of healthy donors were preincubated with 3 μM lenalidomide for 5 days. Subsequently, NCI-H929 cells were incubated with 3 μM lenalidomide, lenalidomide-exposed PBMCs and/or 20 μg/mL HexaBody-DR5/DR5 for an additional 24 h.

[9] = cynomolgus monkey, in vivo, iv
[10] = single dose study by intravenous infusion, plasma PK (generic IgG ECLIA); settings: for Cmax / Tmax / Vd: group mean
[11] = repeat-dose toxicity study, 5 weekly IV infusions (toxicokinetics, NOAEL/HNSTD)
[12] = median over the seven cell lines with >40% max inhibition
[13] = newly diagnosed (ND) patient samples
[14] = relapsed and/or refractory (RR) patient samples
[15] = 1QWx5 IV dosing, GLP toxicity study

Nc1cccc2c1CN(C1CCC(=O)NC1=O)C2=O (stereo not drawn) [lenalidomide]
effect of preincubation on HexaBody-DR5/DR5-mediated kill (NCI-H929 cells [1]): no direct effect
single agent activity (primary MM cells [2]): no single agent activity

HexaBody-DR5/DR5: 1:1 mixture of IgG1-hDR5-01-G56T-E430G and IgG1-hDR5-05-E430G, two non-competing humanized anti-human DR5 IgG1 antibodies
Average IC20 (A375): 0.067 µg/mL
IC20 (A375): 0.445 nM
Max inhibition % (A375): 54.6%
Average IC20 (BxPC-3): 0.102 µg/mL
IC20 (BxPC-3): 0.677 nM
Max inhibition % (BxPC-3): 89.4%
Average IC20 (COLO 205): 0.015 µg/mL
IC20 (COLO 205): 0.103 nM
Max inhibition % (COLO 205): 99.6%
Average IC20 (HCT-15): 0.104 µg/mL
IC20 (HCT-15): 0.692 nM
Max inhibition % (HCT-15): 66.7%
Average IC20 (PANC-1): 0.083 µg/mL
IC20 (PANC-1): 0.554 nM
Max inhibition % (PANC-1): 61.0%
Average IC20 (SK-MES-1): 0.086 µg/mL
IC20 (SK-MES-1): 0.572 nM
Max inhibition % (SK-MES-1): 76.6%
Average IC20 (SNU-5): 0.041 µg/mL
IC20 (SNU-5): 0.274 nM
Max inhibition % (SNU-5): 44.7%
maximal inhibition of viability (human cancer cell lines; in seven of the twelve cell lines tested): more than 40%
IC20 (human cancer cell lines; [12]): 0.554 nM
Overall Median IC20 (human cancer cell lines; [12]): 0.083 µg/mL
tumor growth inhibition [3]: significant tumor growth inhibition
tumor growth inhibition ([4]; 0.5 mg/kg QWx2 IV, Mann-Whitney p<0.0379): significant tumor growth inhibition
tumor growth inhibition ([4]; 2 mg/kg QWx2 IV, Mann-Whitney p<0.0003): significant tumor growth inhibition
increase in exposure with increasing dose, based on nCmax and nAUC0-∞ [5]: proportional increase in exposure
target-mediated clearance (plasma concentration-time profiles) ([5]; single or repeated dose): no indications of target-mediated clearance
In vivo anti-tumor response in CDX and PDX mouse models (CDX and PDX mouse models; dose giving full response): 2 mg/kg
In vivo anti-tumor response in CDX and PDX mouse models (CDX and PDX mouse models; dose giving partial response): 0.5 mg/kg
hazard of acute cytokine-releasing activity [6]: no hazard of acute cytokine-releasing activity has been identified
immune agonistic properties [6]: no immune agonistic properties
median lysis of MM cells (primary MM cells [7]; RR patients under treatment or last treatment shorter than 1 month before BM biopsy): 62%
median lysis of MM cells (primary MM cells [7]; RR patients with last exposure to therapy >1 month before BM biopsy): 23%
median lysis of MM cells (primary MM cells [7]; [13]): 19%
range of lysis of MM cells (primary MM cells [7]; [13]): 3-69%
median lysis of MM cells (primary MM cells [7]; [14]): 43%
range of lysis of MM cells (primary MM cells [7]; [14]): 0-86%
effect of FcγR-mediated crosslinking on cytotoxicity (NCI-H929 cells [8]): did not increase
AUC0-∞ (μg · day/· mL^−1) ([9]; 0.5 mg/kg): 40.3 μg · day/· mL^−1
CL (mL · day^−1/· kg^−1) ([9]; 0.5 mg/kg): 12.6 mL · day^−1/· kg^−1
T1/2 ([9]; 0.5 mg/kg): 83.5 h
nCmax (μg · mL^−1/mg · kg^−1) ([9]; 0.5 mg/kg): 33.5 μg · mL^−1/mg · kg^−1
AUC0-∞ (μg · day/· mL^−1) ([9]; 5 mg/kg): 452.6 μg · day/· mL^−1
CL (mL · day^−1/· kg^−1) ([9]; 5 mg/kg): 11.4 mL · day^−1/· kg^−1
T1/2 ([9]; 5 mg/kg): 110 h
nCmax (μg · mL^−1/mg · kg^−1) ([9]; 5 mg/kg): 27.0 μg · mL^−1/mg · kg^−1
AUC0-∞ (μg · day/· mL^−1) ([9]; 25 mg/kg): 2748 μg · day/· mL^−1
CL (mL · day^−1/· kg^−1) ([9]; 25 mg/kg): 9.10 mL · day^−1/· kg^−1
T1/2 ([9]; 25 mg/kg): 166 h
nCmax (μg · mL^−1/mg · kg^−1) ([9]; 25 mg/kg): 18.8 μg · mL^−1/mg · kg^−1
Cmax ([10]; 0.5 mg/kg single IV): 16.7 µg/mL
Tmax ([10]; 0.5 mg/kg single IV): 1 h
Vd ([10]; 0.5 mg/kg single IV): 0.0635 L/kg
Cmax ([10]; 5 mg/kg single IV): 135.0 µg/mL
Tmax ([10]; 5 mg/kg single IV): 1 h
Vd ([10]; 5 mg/kg single IV): 0.0726 L/kg
Cmax ([10]; 25 mg/kg single IV): 470.3 µg/mL
Tmax ([10]; 25 mg/kg single IV): 3.36 h
Vd ([10]; 25 mg/kg single IV): 0.091 L/kg
increase in exposure with increasing dose, based on nAUC0-∞ ([10]; 0.5 to 25 mg/kg): more or less proportional increase in exposure
increase in exposure, based on nCmax ([10]; between 5 and 25 mg/kg): less than proportional increase in exposure
increase in exposure, based on nCmax ([10]; up to a dose of 5 mg/kg): proportional increase in exposure
HNSTDcyno [11, 15]: 50 mg/kg
NOAELcyno [11, 15]: 50 mg/kg
MRSDhuman (=NOAELcyno/6) ([11]; converted from cynomolgus NOAEL/HNSTD): 8.3 mg/kg
